Assay results published in US8632821B2, “Use of xenon for treating hypersensitivity to pain” (L'Air Liquide, Société Anonyme pour l'Etude et …, priority 2009, dated 2014).
“Also recorded” adds a separate entry of the source.

Test system: male Sprague-Dawley rats
Experiment: Carrageenan model of inflammatory pain, paw-pressure vocalization test (Randall-Selitto)
Assay type: in vivo, rat
Protocol: In order to show the efficacy of the gas mixture according to the invention in the prevention of post-traumatic hyperalgesia, a model of inflammatory pain was used in rats, namely male Sprague-Dawley rats, in the context of preclinical studies.
An inflammatory product, carrageenan (0.2 ml of saline solution with 1% of carrageenan), was injected subcutaneously into the sole of the hind paw of a rat.
Two xenon concentrations by volume were tested, namely: • a ternary gas mixture made up of 25% Xe+25% N2+50% O2, and • a binary gas mixture made up of 50% Xe+50% O2.
The nociceptive threshold, i.e. the pain threshold, was evaluated using the paw-pressure vocalization test (Randall-Selitto), in which increasing pressures (measured in grams) are applied to the hind paw of the rat until the rat squeaks.
More specifically, on Day 0 (D0), the inflammatory product, i.e. the carrageenan (Car), was injected into a hind paw of the rats.
The exposure of the rats to the gases by inhalation begins 1 h 45 after the injection of Car and lasts for 1 h 45. The nociceptive threshold is evaluated 1 h 30, 2 h 30, 3 h 00, 3 h 30 and 4 h 30 after the injection of Car and then once a day until a return to the basal nociceptive threshold.

SMILES: [Xe] [xenon]
- analgesic effect during administration, 50% content compared with 25% content (50% Xe+50% O2 (FIG. 2A) versus 25% Xe+25% N2+50% O2 (FIG. 1A), inflamed paw): more effective
- analgesic effect during administration (nociceptive threshold) (inhaled xenon 25% or 50% by volume, exposure 1 h 45 starting 1 h 45 after carrageenan, inflamed paw): has an analgesic effect
- duration of delayed hyperalgesia on the inflamed paw (xenon at 25% (25% Xe+25% N2+50% O2) inhaled 1 h 45, control air/Car 4 days, FIG. 1A): 2 days
- delayed hyperalgesia on the inflamed paw (xenon at 50% (50% Xe+50% O2) inhaled 1 h 45, FIG. 2A): totally prevents
- delayed hyperalgesia on the non-inflamed paw (xenon at 50% (50% Xe+50% O2) inhaled 1 h 45, FIG. 2B): totally prevents; also recorded: completely prevents
